Experimental data from patent publication EP0085870A1, “Dibenz(b,e)oxepin derivatives and pharmaceutical compositions containing them” (KYOWA HAKKO KOGYO CO., LTD, priority 1982, dated 1983).

How the values were obtained:
male dd-strain mice = test: Acute toxicity test; type: in vivo; conditions: mortality for 7 days after administration
Description: Groups of male dd-strain mice (each croup consisting of five mice) weighing 20 + 1 g are used. Compound I are administered orally (po : 0.3 mg/g) or intraperitoneally (ip : 0.1 mg/g). The MLD lethal dose) is calculated from the mortality for 7 days after the administration to obtain the results given in Table 1.

PCA response = test: Antiasthmatic activity test: passive cutaneous anaphylaxis response (PCA response); type: in vivo, Wistar strain male rats; conditions: Rattus norvegicus, rats; for minimal effective dose: po, minimum effective dose, depressing ratio of 50% or more counts as positive, read-out: MED; for inhibition in vivo at 2.5 mg/kg: Dose 2.5 mg/Kg PO; for inhibition in vivo at 5 mg/kg: Dose 5 mg/Kg PO; for inhibition in vivo at 10 mg/kg: Dose 10 mg/Kg PO; for inhibition in vivo at 25 mg/kg: Dose 25 mg/Kg PO; for inhibition in vivo at 50 mg/kg: Dose 50 mg/Kg PO; for inhibition in vivo at 100 mg/kg: Dose 100 mg/Kg PO
Description: Antiasthmatic activity is evaluated according to passive cutaneous anaphylaxis response (PCA response). Antiserum is collected from Wistar strain male rats weighing 200 to 250 g. PCA response is evaluated using Wistar strain male rats weighing 100 to 120 g.
One mg of egg albumin is dissolved in 0.5 ml of pertussisdiphtheria mixed vaccine, and the resulting solution is mixed with 0.5 ml of incomplete adjuvant. The resulting emulsion is used as antigen and administered to rats subcutaneously through the sole. On the 12th day after the administration, heads of the rats are cut to collect blood. Thus, antiserum is prepared.
Upon evaluating antiasthmatic activity, concentration of the antiserum is adjusted so that diameter of blue-dyed portion is about 8 to about 10 mm.
Six rats are used per group. 0.05 ml of the antiserum is intracutaneously administered to each of the previously back-shaved rats to sensitize. After 17 hours, compound I or the solutions thereof (physiological salt solution or CMC solution) are respectively administered and, after 60 minutes, an antigen mixture (1% Evans' Blue physiological salt solution containing 0.2% egg albumin) is injected intravenously in an amount of 0.5 ml/100 g to induce PCA. response. After 30 minutes, rats are choked to death followed by cutting out skin to measure the diameter of blue-dyed portion. The results are evaluated by awarding a score according to the diameter of blue―dved portion. Furthermore, ratios of the diameters to that of solvent (psysiological salt solution or CMC) administered group are snowing a depressing ratio of 50% or more calculated according to the following formula are concluded to show positive antiasthmatic activity. Also, the minimum effective dose (MED) is determined from the results with respective doses to compare the strength of entrasthamatis activity.

[1] = given 60 minutes before antigen, read-out: depressing ratio

Molecule `Cc1ccc2c(c1)C(SCCN(C)C)c1ccccc1CO2` (stereo not drawn) [Compound 1, 2-methyl-11-[2-(dimethylamino)ethyl]thio-6,11-dihydrodibenz[b,e]oxepin] has an MLD (male dd-strain mice; ip) greater than 100 mg/kg, an MLD (male dd-strain mice; po) greater than 300 mg/kg and a minimal effective dose (PCA response) of 2.5 mg/kg. For the same molecule, the inhibition in vivo at 1 mg/kg (PCA response; Dose 1 mg/Kg PO, given 60 minutes before antigen, read-out: depressing ratio) was 49%, the inhibition in vivo at 2.5 mg/kg (PCA response; [1]) was 81% and the inhibition in vivo at 5 mg/kg (PCA response; [1]) was 100%. For the same molecule, the inhibition in vivo at 10 mg/kg (PCA response; [1]) was 100%, the inhibition in vivo at 25 mg/kg (PCA response; [1]) was 100% and the inhibition in vivo at 50 mg/kg (PCA response; [1]) was 100%. The inhibition in vivo at 100 mg/kg (PCA response; [1]) was 100%.

For `CCN(CC)CCSC1c2ccccc2COc2ccc(C)cc21` (stereo not drawn) [Compound 2, 2-methyl-11-[2-(diethylamino)ethyl]thio-6,11-dihydrodibenz[b,e]oxepin], the MLD (male dd-strain mice; ip) was greater than 100 mg/kg, the MLD (male dd-strain mice; po) was greater than 300 mg/kg and the minimal effective dose (PCA response) was 10 mg/kg. It also gave an inhibition in vivo at 2.5 mg/kg (PCA response; [1]) of 20%, an inhibition in vivo at 5 mg/kg (PCA response; [1]) of 40% and an inhibition in vivo at 10 mg/kg (PCA response; [1]) of 52%. The inhibition in vivo at 25 mg/kg (PCA response; [1]) was 100%, the inhibition in vivo at 50 mg/kg (PCA response; [1]) was 100% and the inhibition in vivo at 100 mg/kg (PCA response; [1]) was 100%.

`CCN(CC)CCSC1c2ccccc2COc2c(C)cccc21` (stereo not drawn) [Compound 3, 4-methyl-11-[2-(diethylamino)ethyl]thio-6,11-dihydrodibenz[b,e]oxepin] was tested, and the MLD (male dd-strain mice; ip) was greater than 100 mg/kg, the MLD (male dd-strain mice; po) was greater than 300 mg/kg and the minimal effective dose (PCA response) was 100 mg/kg. It also gave an inhibition in vivo at 50 mg/kg (PCA response; [1]) of 14% and an inhibition in vivo at 100 mg/kg (PCA response; [1]) of 52%.

`CCN(CC)CCSC1c2ccccc2COc2ccc(Cl)cc21` (stereo not drawn) [Compound 4, 2-chloro-11-[2-(diethylamino)ethyl]thio-6,11-dihydrodibenz[b,e]oxepin] was tested, and the MLD (male dd-strain mice; ip) was greater than 100 mg/kg, the MLD (male dd-strain mice; po) was greater than 300 mg/kg and the minimal effective dose (PCA response) was 50 mg/kg. It also gave an inhibition in vivo at 10 mg/kg (PCA response; [1]) of 10%, an inhibition in vivo at 25 mg/kg (PCA response; [1]) of 46% and an inhibition in vivo at 50 mg/kg (PCA response; [1]) of 100%. For the same molecule, the inhibition in vivo at 100 mg/kg (PCA response; [1]) was 100%.

Work on `CCc1ccc2c(c1)C(SCCN(CC)CC)c1ccccc1CO2` (stereo not drawn) [Compound 5, 2-ethyl-11-[2-(diethylamino)ethyl]thio-6,11-dihydrodibenz[b,e]oxepin] yielded an MLD (male dd-strain mice; ip) of 100 mg/kg, an MLD (male dd-strain mice; po) greater than 300 mg/kg and a minimal effective dose (PCA response) of 10 mg/kg. For the same molecule, the inhibition in vivo at 5 mg/kg (PCA response; [1]) was 36%, the inhibition in vivo at 10 mg/kg (PCA response; [1]) was 56% and the inhibition in vivo at 25 mg/kg (PCA response; [1]) was 100%. For the same molecule, the inhibition in vivo at 50 mg/kg (PCA response; [1]) was 100% and the inhibition in vivo at 100 mg/kg (PCA response; [1]) was 100%.

Molecule `CCN(CC)CCSC1c2ccccc2COc2ccc(F)cc21` (stereo not drawn) [Compound 6, 2-fluoro-11-[2-(diethylamino)ethyl]thio-6,11-dihydrodibenz[b,e]oxepin] has an MLD (male dd-strain mice; ip) greater than 100 mg/kg, an MLD (male dd-strain mice; po) greater than 300 mg/kg and a minimal effective dose (PCA response) of 25 mg/kg. It also gave an inhibition in vivo at 10 mg/kg (PCA response; [1]) of 3%, an inhibition in vivo at 25 mg/kg (PCA response; [1]) of 84% and an inhibition in vivo at 50 mg/kg (PCA response; [1]) of 100%. It also gave an inhibition in vivo at 100 mg/kg (PCA response; [1]) of 100%.

`CCc1ccc2c(c1)C(SCCN(C)C)c1ccccc1CO2` (stereo not drawn) [Compound 7, 2-ethyl-11-[2-(dimethylamino)ethyl]thio-6,11-dihydrodibenz[b,e]oxepin] gave an MLD (male dd-strain mice; ip) greater than 100 mg/kg, an MLD (male dd-strain mice; po) greater than 300 mg/kg and a minimal effective dose (PCA response) of 5 mg/kg. The inhibition in vivo at 2.5 mg/kg (PCA response; [1]) was 30%, the inhibition in vivo at 5 mg/kg (PCA response; [1]) was 81% and the inhibition in vivo at 10 mg/kg (PCA response; [1]) was 100%. It also gave an inhibition in vivo at 25 mg/kg (PCA response; [1]) of 100%, an inhibition in vivo at 50 mg/kg (PCA response; [1]) of 100% and an inhibition in vivo at 100 mg/kg (PCA response; [1]) of 100%.

Work on `CN(C)CCSC1c2ccccc2COc2ccc(F)cc21` (stereo not drawn) [Compound 8, 2-fluoro-11-[2-(dimethylamino)ethyl]thio-6,11-dihydrodibenz[b,e]oxepin] yielded an MLD (male dd-strain mice; ip) greater than 100 mg/kg, an MLD (male dd-strain mice; po) greater than 300 mg/kg and a minimal effective dose (PCA response) of 25 mg/kg. It also gave an inhibition in vivo at 5 mg/kg (PCA response; [1]) of 23%, an inhibition in vivo at 10 mg/kg (PCA response; [1]) of 33% and an inhibition in vivo at 25 mg/kg (PCA response; [1]) of 100%. The inhibition in vivo at 50 mg/kg (PCA response; [1]) was 100% and the inhibition in vivo at 100 mg/kg (PCA response; [1]) was 100%.

For `CCc1ccc2c(c1)C(SCCN(C(C)C)C(C)C)c1ccccc1CO2` (stereo not drawn) [Compound 9, 2-ethyl-11-[2-(diisopropylamino)ethyl]thio-6,11-dihydrodibenz[b,e]oxepin], the MLD (male dd-strain mice; ip) was greater than 100 mg/kg, the MLD (male dd-strain mice; po) was greater than 300 mg/kg and the minimal effective dose (PCA response) was 25 mg/kg. For the same molecule, the inhibition in vivo at 10 mg/kg (PCA response; [1]) was 22%, the inhibition in vivo at 25 mg/kg (PCA response; [1]) was 67% and the inhibition in vivo at 50 mg/kg (PCA response; [1]) was 100%. The inhibition in vivo at 100 mg/kg (PCA response; [1]) was 100%.

Work on `CC(C)N(CCSC1c2ccccc2COc2ccc(F)cc21)C(C)C` (stereo not drawn) [Compound 10, 2-fluoro-11-[2-(diisopropylamino)ethyl]thio-6,11-dihydrodibenz[b,e]oxepin] yielded an MLD (male dd-strain mice; ip) greater than 100 mg/kg, an MLD (male dd-strain mice; po) greater than 300 mg/kg and a minimal effective dose (PCA response) of 100 mg/kg. It also gave an inhibition in vivo at 10 mg/kg (PCA response; [1]) of 0%, an inhibition in vivo at 25 mg/kg (PCA response; [1]) of 11% and an inhibition in vivo at 50 mg/kg (PCA response; [1]) of 11%. The inhibition in vivo at 100 mg/kg (PCA response; [1]) was 73%.

`Cc1ccc2c(c1)OCc1ccccc1C2SCCN(C)C` (stereo not drawn) [Compound 11, 3-methyl-11-[2-(dimethylamino)ethyl]thio-6,11-dihydrodibenz[b,e]oxepin] showed an MLD (male dd-strain mice; ip) greater than 100 mg/kg, an MLD (male dd-strain mice; po) greater than 300 mg/kg and a minimal effective dose (PCA response) of 50 mg/kg. It also gave an inhibition in vivo at 10 mg/kg (PCA response; [1]) of 0%, an inhibition in vivo at 25 mg/kg (PCA response; [1]) of 28% and an inhibition in vivo at 50 mg/kg (PCA response; [1]) of 61%. The inhibition in vivo at 100 mg/kg (PCA response; [1]) was 61%.
